# Test results reported in US20220348584A1, “PERK INHIBITING INDOLINYL COMPOUNDS” (HiberCell, Inc., priority 2019, published 2022).
# Where two headings read alike, the source gives them in different places.
# How the values were obtained:
# [1] = target: T1, EIF2AK3 (PERK) catalytic domain (amino acids 536-1116) (Homo sapiens, UniProt Q9NZJ5); assay: PERK In Vitro Activity Assay (Isolated), TR-FRET kinase assay; assay type: biochemical; conditions: isolated PERK enzyme, 1.5 μM ATP
# T1 construct: EIF2AK3 (PERK) catalytic domain (amino acids 536-1116); purchased Invitrogen, Carlsbad, Calif
# T1 sequence (Q9NZJ5 536-1116): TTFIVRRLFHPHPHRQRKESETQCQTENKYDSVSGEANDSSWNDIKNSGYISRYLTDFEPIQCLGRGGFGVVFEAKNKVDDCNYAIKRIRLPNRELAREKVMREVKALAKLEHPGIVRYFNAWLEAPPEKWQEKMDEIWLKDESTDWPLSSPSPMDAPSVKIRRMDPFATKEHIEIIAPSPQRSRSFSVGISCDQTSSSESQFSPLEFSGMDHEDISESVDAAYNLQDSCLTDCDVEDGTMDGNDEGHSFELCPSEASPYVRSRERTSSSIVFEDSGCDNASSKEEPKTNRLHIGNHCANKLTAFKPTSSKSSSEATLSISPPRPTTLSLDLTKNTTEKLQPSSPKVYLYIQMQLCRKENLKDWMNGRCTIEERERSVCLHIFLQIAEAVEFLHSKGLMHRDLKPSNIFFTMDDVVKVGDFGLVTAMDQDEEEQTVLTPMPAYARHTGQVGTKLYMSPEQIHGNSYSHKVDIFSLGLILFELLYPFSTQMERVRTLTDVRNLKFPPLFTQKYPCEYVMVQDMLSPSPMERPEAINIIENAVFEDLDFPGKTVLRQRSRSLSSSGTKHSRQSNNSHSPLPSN
# Protocol: Perform TR-FRET kinase assays in the absence or presence of inhibitors in a reaction buffer consisting of 50 mM HEPES, pH 7.5, 10 mM MgCb, 1.0 mM EGTA, and 0.01% Brij-35, and 100-200 nM GFP-eIF2a substrate. […] Add test compound, initiate the reaction by addition of enzyme, and incubate at room temperature for 45 minutes. Stop the reaction by addition of EDTA to a final concentration of 10 mM, add Terbium-labelled phospho-eIF2a antibody at a final concentration of 2 nM, and incubate for 90 minutes. Monitor the resulting fluorescence in an EnVison® Multilabel reader (PerkinElmer, Waltham, Mass.).
# HEK293-EGFP-eIF2a cells = assay: PERK Cellular Assay (TR-FRET, GFP-eIF2α, tunicamycin-induced ER stress); assay type: cell-based, human; conditions: Homo sapiens, 2 h
# Protocol: Stable cell lines were created in HEK293 cells using lentiviral particles harboring an expression vector for GFP-eIF2α. Cells were selected using puromycin and enriched using fluorescence activated cell sorting against GFP. HEK293-EGFP-eIF2a cells were plated at 5000 cells/well in 384-well assay plates and incubated overnight at 37° C., 5% CO2. Inhibitor compounds were added to the wells by Echo acoustic dispensing and incubated for 30 minutes at 37° C., 5% CO2 prior to induction of ER stress by addition of tunicamycin to […] for 2 hours. Cells were lysed and TR-FRET was measured in an EnVision plate reader (PerkinElmer). FRET ratio data was normalized to signal from lysates treated with DMSO vehicle control and plotted as percent inhibition against 10-point; 3-fold dilution series of inhibitors. IC50 values were calculated using 4-parameter logistical fitting in XLFit.
# [2] = HEK293-EGFP-eIF2a cells, tunicamycin 2 hours, TR-FRET, read-out: Cellular eIF2α IC50
IC50 ([1]; read-out: Biochemical IC50),SMILES,IC50 (HEK293-EGFP-eIF2a cells; [2]),IC50 ([1]; Biochemical IC50 (μM)),IC50 (HEK293-EGFP-eIF2a cells; read-out: Cellular eIF2α IC50 (μM))
0.051 to 0.1 µM,"Cc1cccc(CC(=O)N2CCc3c2ccc(-c2nc(C)n4c(C)c(C)nc(N)c24)c3F)n1 [Example 27, 1-(5-(8-amino-3,5,6-trimethylimidazo[1,5-a]pyrazin-1-yl)-4-fluoroindolin-1-yl)-2-(6-methylpyridin-2-yl)ethanone]",0.251 to 0.5 µM,,
0.101 to 0.25 µM,"Cn1cc(-c2ccc3c(c2F)CCN3C(=O)Nc2ccccc2)c2c(N)ncnc21 [Example 28, 5-(4-amino-7-methyl-7H-pyrrolo[2,3-d]pyrimidin-5-yl)-4-fluoro-N-phenylindoline-1-carboxamide]",2 to 3 µM,,
0.051 to 0.1 µM,"Cc1cccc(CC(=O)N2CCc3c2ccc(-c2cnc(N)c(C(=O)NC(C)C)c2)c3F)n1 [Example 29, 2-amino-5-(4-fluoro-1-(2-(6-methylpyridin-2-yl)acetyl)indolin-5-yl)-N-isopropylnicotinamide]",0.501 to 1 µM,,
0.026 to 0.05 µM,"Cn1cc(-c2ccc3c(c2F)CCN3C(=O)C(F)(F)c2ccccc2)c2c(N)ncnc21 [Example 30, 1-(5-(4-amino-7-methyl-7H-pyrrolo[2,3-d]pyrimidin-5-yl)-4-fluoroindolin-1-yl)-2,2-difluoro-2-phenylethanone]",0.101 to 0.25 µM,,
,"Cc1cc(C)n(CC(=O)N2CCc3c2ccc(-c2cn(C)c4ncnc(N)c24)c3F)n1 [Example 31, 1-(5-(4-amino-7-methyl-7H-pyrrolo[2,3-d]pyrimidin-5-yl)-4-fluoroindolin-1-yl)-2-(3,5-dimethyl-1H-pyrazol-1-yl)ethanone]",,0.001 to 0.025 µM,0.001 to 0.025 µM
0.001 to 0.025 µM,"Cc1cc(C)n(CC(=O)N2CCc3c2ccc(-c2cn(C)c4nc(C)nc(N)c24)c3F)n1 [Example 32, 1-(5-(4-amino-2,7-dimethyl-7H-pyrrolo[2,3-d]pyrimidin-5-yl)-4-fluoroindolin-1-yl)-2-(3,5-dimethyl-1H-pyrazol-1-yl)ethanone]",0.051 to 0.1 µM,,
0.001 to 0.025 µM,"Cc1nc(-c2ccc3c(c2)CCN3C(=O)Cc2cc(F)cc(C(F)(F)F)c2)c2c(N)ncc(Cl)n12 [Example 33, 1-(5-(8-amino-5-chloro-3-methylimidazo[1,5-a]pyrazin-1-yl)indolin-1-yl)-2-(3-fluoro-5-(trifluoromethyl)phenyl)ethanone]",0.001 to 0.025 µM,,
